Assay results taken from patent US8252723B2, “Substituted 1-(3-pyridinyl)pyrazol-4-ylacetic acids, processes for their preparation and their use as herbicides and plant growth regulators” (Bayer CropScience AG, priority 2006, dated 2012).

test system: summer wheat of the cultivar 'Triso'; assay: Plant growth regulation test: culm stabilization of crop plants; assay type: in vivo; details: application rate of 30 to 300 g of active substance per hectare, treated at stage BBCH 31, culm length measured after ears had formed
Method: With stirring, the compound of the formula (I) in question was, in the form of a water-dispersible powder, together with a surfactant (customary adjuvant at an application rate of 1 l/ha), mixed with water such that a homogenous spray liquor was formed, and applied at an application rate of 300 l of water/ha (converted).
Seeds of summer wheat of the cultivar ‘Triso’ were sown at a depth of 1 cm in plant pots and cultivated outdoors until treatment.
The plants were treated on a laboratory track sprayer with spray liquors of the test substances at macrostage 3 after having reached about 10% of the maximum longitudinal growth typical for the cultivar (stage BBCH 31) and, after the treatment, returned outdoors.
After the ears had formed, the length of the culms were measured. The culm stabilization was evaluated as a percentage of the untreated control.

| Structure (SMILES) | longitudinal growth (culm length) of summer wheat |
| --- | --- |
| COC(=O)Cc1c(C=O)nn(-c2cccnc2)c1-c1ccc(Cl)cc1 [Example 2-165] | effectively shortened |
| COC(=O)Cc1c(C)nn(-c2cccnc2)c1-c1ccco1 [Example 2-4] | effectively shortened |
| Cc1nn(-c2cccnc2)c(-c2ccc(C(F)(F)F)cn2)c1CC(=O)O [Example 1-144] | effectively shortened |
| COC(=O)Cc1c(C)nn(-c2cnccc2C)c1-c1ccccc1Cl [Example 2-22] | effectively shortened |
| C=C(Cl)COC(=O)Cc1c(C)nn(-c2cccnc2)c1-c1ccsc1 [Example 3-187] | effectively shortened |
| COc1ccc(-c2c(CC(=O)O)c(C)nn2-c2cccnc2)cc1 [Example 1-14] | effectively shortened |
| C/C=C/C(C)OC(=O)Cc1c(C)nn(-c2cccnc2)c1-c1ccccc1 (centres unmarked) [Example 3-160] | effectively shortened |
| COC(=O)Cc1c(C)nn(-c2cccnc2)c1-c1ccc(Cl)cc1Cl [Example 2-114] | effectively shortened |
| C#CCOC(=O)Cc1c(C)nn(-c2cccnc2)c1-c1ccc(F)cc1 [Example 3-68] | effectively shortened |
| COc1ccc(-c2c(CC(=O)O)c(C)nn2-c2cccnc2)cn1 [Example 1-62] | effectively shortened |
| COC(=O)Cc1c(C)nn(-c2cccnc2)c1-c1cccc(OC)n1 [Example 2-145] | effectively shortened |
| COc1cccc(-c2c(CC(=O)O)c(C)nn2-c2cccnc2)n1 [Example 1-145] | effectively shortened |
| Cc1cccc(-c2c(CC(=O)O)c(C)nn2-c2cnccc2C)c1 [Example 1-38] | effectively shortened |
| Cc1ccc(-c2c(CC(=O)O)c(C)nn2-c2cccnc2)cc1 [Example 1-16] | effectively shortened |
| C=C(Cl)COC(=O)Cc1cnn(-c2cccnc2)c1-c1ccccc1 [Example 3-207] | effectively shortened |
| Cc1cncc(-n2nc(C)c(CC(=O)O)c2-c2ccc(Cl)cc2)c1 [Example 1-51] | effectively shortened |
| COC(=O)Cc1c(C)nn(-c2cccnc2)c1-c1ccsc1 [Example 2-63] | effectively shortened |
| Cc1nn(-c2cnccc2C(F)(F)F)c(-c2ccccc2)c1CC(=O)O [Example 1-8] | effectively shortened |
| COC(=O)Cc1c(C)nn(-c2cnccc2SC)c1-c1ccccc1 [Example 2-44] | effectively shortened |
| COC(=O)Cc1c(C)nn(-c2ccc(C)nc2C)c1-c1ccccc1 [Example 2-11] | effectively shortened |
| COC(=O)Cc1c(C)nn(-c2cccnc2)c1-c1ccc(O)nc1 [Example 2-70] | effectively shortened |
| COC(=O)Cc1c(C)nn(-c2ccc(Cl)nc2)c1-c1ccccc1 [Example 2-7] | effectively shortened |

| Structure (SMILES) | longitudinal growth (culm length) of summer wheat |
| --- | --- |
| Cc1nn(-c2cccnc2)c(-c2ccc(Cl)c(C(F)(F)F)c2)c1CC(=O)O [Example 1-47] | effectively shortened |
| Cc1ccncc1-n1ncc(CC(=O)O)c1-c1ccccc1 [Example 1-73] | effectively shortened |
| Cc1ccncc1-n1nc(C)c(CC(=O)O)c1-c1cccs1 [Example 1-52] | effectively shortened |
| COC(=O)Cc1c(CO)nn(-c2cccnc2)c1-c1ccc(Cl)cc1 [Example 2-184] | effectively shortened |
| Cc1csc(-c2c(CC(=O)OCC3CC3)c(C)nn2-c2cccnc2)c1 [Example 3-85] | effectively shortened |
| Cc1ccc(-c2c(CC(=O)O)c(C)nn2-c2cccnc2)nc1 [Example 1-113] | effectively shortened |
| C=C(Cl)COC(=O)Cc1c(C)nn(-c2cccnc2)c1-c1ccc(Cl)s1 [Example 3-190] | effectively shortened |
| CSc1ccncc1-n1nc(C)c(CC(=O)O)c1-c1ccc(Cl)cc1 [Example 1-45] | effectively shortened |
| Cc1nn(-c2cccnc2)c(-c2ccc(O)nc2)c1CC(=O)OCC1CC1 [Example 3-87] | effectively shortened |
| C#CC(C)OC(=O)Cc1c(C)nn(-c2cccnc2)c1-c1ccccc1 (centres unmarked) [Example 3-140] | effectively shortened |
| COC(=O)Cc1c(C)nn(-c2cnccc2C)c1-c1ccc(OC)cc1 [Example 2-13] | effectively shortened |
| COC(=O)Cc1c(C)nn(-c2cccnc2)c1-c1ccc(C(F)(F)F)cc1 [Example 2-28] | effectively shortened |
| Cc1ccncc1-n1nc(C)c(CC(=O)O)c1-c1ccc(Cl)c(C(F)(F)F)c1 [Example 1-48] | effectively shortened |
| COC(=O)Cc1c(C)nn(-c2cnccc2C)c1-c1ccc(C)c(C)c1 [Example 2-116] | effectively shortened |
| COC(=O)Cc1c(C)nn(-c2cnccc2C)c1-c1ccc(C(F)(F)F)cc1 [Example 2-24] | effectively shortened |
| COC(=O)Cc1c(C(=O)OC)nn(-c2cccnc2)c1-c1ccccc1 [Example 2-127] | effectively shortened |
| Cc1ccncc1-n1nc(C)c(CC(=O)O)c1-c1ccc(Cl)cc1 [Example 1-25] | effectively shortened |
| Cc1nn(-c2cccnc2)c(-c2ccc(Cl)cc2)c1CC(=O)OCCN(C)C [Example 3-231] | effectively shortened |
| COC(=O)Cc1c(C)nn(-c2cnccc2C)c1-c1ccc(C)cc1 [Example 2-36] | effectively shortened |
| COC(=O)Cc1c(C)nn(-c2cnccc2C)c1-c1ccc(F)cc1 [Example 2-37] | effectively shortened |
| Cc1ccncc1-n1nc(C)c(CC(=O)O)c1-c1ccsc1 [Example 1-56] | effectively shortened |
| C#CCOC(=O)Cc1c(C)nn(-c2cccnc2)c1-c1ccncc1 [Example 3-74] | effectively shortened |

| Structure (SMILES) | longitudinal growth (culm length) of summer wheat |
| --- | --- |
| Cc1nn(-c2cccnc2)c(-c2ccccc2)c1CC(=O)OCC#Cc1ccccc1 [Example 3-164] | effectively shortened |
| Cc1nn(-c2cccnc2)c(-c2ccc(Cl)s2)c1CC(=O)O [Example 1-60] | effectively shortened |
| Cc1ccncc1-n1nc(C)c(CC(=O)O)c1-c1ccccn1 [Example 1-132] | effectively shortened |
| Cc1nn(-c2cccnc2)c(-c2ccc(F)cc2)c1CC(=O)OCC1CC1 [Example 3-91] | effectively shortened |
| COC(=O)Cc1c(C)nn(-c2cnccc2OC)c1-c1ccc(Cl)cc1 [Example 2-35] | effectively shortened |
| Cc1nn(-c2cccnc2)c(-c2ccc(F)cc2)c1CC(=O)O [Example 1-120] | effectively shortened |
| COC(=O)Cc1c(C)nn(-c2cncc(C)c2)c1-c1ccc(Cl)cc1 [Example 2-51] | effectively shortened |
| Cc1ccncc1-n1nc(C)c(CC(=O)O)c1-c1ccc(C(=O)O)cc1 [Example 1-39] | effectively shortened |
| COC(=O)Cc1c(C)nn(-c2cccnc2)c1-c1ccc(Cl)cc1 [Example 2-26] | effectively shortened |
| COC(=O)Cc1c(C)nn(-c2cnccc2C)c1-c1ccc(Cl)c(C(F)(F)F)c1 [Example 2-48] | effectively shortened |
| COC(=O)Cc1c(C)nn(-c2cnccc2[S+](C)[O-])c1-c1ccc(Cl)cc1 (centres unmarked) [Example 2-64] | effectively shortened |
| COC(=O)Cc1c(C)nn(-c2cccnc2C)c1-c1ccccc1 [Example 2-135] | effectively shortened |
| COC(=O)Cc1c(C)nn(-c2cccnc2)c1-c1cccc(C(F)(F)F)c1 [Example 2-18] | effectively shortened |
| COC(=O)Cc1c(C)nn(-c2cccnc2)c1-c1ccc(Cl)cn1 [Example 2-110] | effectively shortened |
| COC(=O)Cc1c(C)nn(-c2cccnc2)c1-c1ccccn1 [Example 2-109] | effectively shortened |
| COC(=O)Cc1c(C)nn(-c2cnccc2C)c1-c1cc(C)cc(C)c1 [Example 2-33] | effectively shortened |
| COC(=O)Cc1c(C)nn(-c2cccnc2)c1-c1ccc(OC)nc1 [Example 2-62] | effectively shortened |
| COC(=O)Cc1c(C)nn(-c2cccnc2)c1-c1ccc(C(C)=O)cc1 [Example 2-121] | effectively shortened |
| Cc1nn(-c2cccnc2)c(-c2ccc(Cl)cc2)c1CC(=O)OCC1(C)COC1 [Example 3-233] | effectively shortened |
| Cc1nn(-c2cccnc2)c(-c2cccc(C(F)(F)F)c2)c1CC(=O)O [Example 1-18] | effectively shortened |
| COC(=O)Cc1c(C)nn(-c2ccc(Cl)nc2Cl)c1-c1ccccc1 [Example 2-12] | effectively shortened |
